Data: patent US9988359B2, “Herbicidally active benzoic acid amides” (BAYER CROPSCIENCE AKTIENGESELLSCHAFT, priority 2014, dated 2018)

Assays:
Assay in all cases: Post-emergence herbicidal action against harmful plants
Format in all cases: in vivo
SETVI Setaria viridis = details: dosage 80 g/ha, assessed visually after about 3 weeks, 100% = plants have died
Method: (§1) SETVI Setaria viridis Seeds of monocotyledonous and dicotyledonous weed and crop plants are laid out in sandy loam in wood-fiber pots, covered with soil and cultivated in a greenhouse under good growth conditions. 2 to 3 weeks after sowing, the test plants are treated at the one-leaf stage. The compounds of the invention, formulated in the form of wettable powders (WP) or as emulsion concentrates (EC), are then sprayed onto the green parts of the plants in the form of an aqueous suspension or emulsion at a water application rate equating to 600 to 800 l/ha, with addition of 0.2% wetting agent. After the test plants have been left to stand in the greenhouse under optimal growth conditions for about 3 weeks, the action of the preparations is assessed visually in comparison to untreated controls (herbicidal action in percent (%): 100% activity=the plants have died, 0% activity=like control plants).

[1] = tested on: AMARE Amaranthus retroflexus; details: dosage 80 g/ha, assessed visually after about 3 weeks, 100% = plants have died
Method: as §1, with “AMARE Amaranthus retroflexus PHBPU Pharbitis purpureum” for “SETVI Setaria viridis”

[2] = tested on: PHBPU Pharbitis purpureum; details: dosage 20 g/ha
Method: as §1, with “AMARE Amaranthus retroflexus PHBPU Pharbitis purpureum” for “SETVI Setaria viridis”

[3] = visual scoring after about 3 weeks vs untreated controls (100% = plants have died, 0% = like control plants)
[4] = assessed visually after about 3 weeks, 100% = plants have died

SMILES | Activity against SETVI (SETVI Setaria viridis) | Activity against AMARE [1] | further results
CSc1c(C)ccc(C(=O)Nc2nonc2C)c1C | 0% | – | –
CSc1c(C)ccc(C(=O)Nc2ncnn2C)c1C | – | 90% | –
Cc1ccc(C(=O)Nc2nonc2C)c(C)c1S(C)(=O)=O [drawing 24] | 40% | – | –
Cc1ccc(C(=O)Nc2ncnn2C)c(Br)c1[S+](C)[O-] (stereo not shown) | – | 70% | –
Cc1nonc1NC(=O)c1ccc(C(F)(F)F)c(S(C)(=O)=O)c1C | 40% | – | –
Cc1ccc(C(=O)Nc2ncnn2C)c(C)c1[S+](C)[O-] (stereo not shown) | – | 90% | –
CSc1c(C)ccc(C(=O)Nc2nnc(C)o2)c1C | – | – | Activity against PHBPU [2, 3]: 60%
Cc1nonc1NC(=O)c1ccc(C#N)c(S(C)(=O)=O)c1C | 0% | – | –
CSc1c(C)ccc(C(=O)Nc2ncnn2C)c1Br | – | 70% | –
Cc1ccc(C(=O)Nc2nonc2C)c(C)c1S(C)(=O)=O [drawing 27] | 80% | – | –
CSc1c(Br)ccc(C(=O)Nc2nnc(C)o2)c1C | – | – | Activity against PHBPU [2, 3]: 10%
Cc1c(C(=O)Nc2ncnn2C)ccc(Cl)c1S(C)(=O)=O | – | 60% | –
COSc1c(C)ccc(C(=O)Nc2nnc(C)o2)c1C | – | – | Activity against PHBPU [2, 4]: 60%
Cc1ccc(C(=O)Nc2ncnn2C)c(C)c1 | – | 0% | –
COSc1c(C)ccc(C(=O)Nc2nnc(C)o2)c1Br | – | – | Activity against PHBPU [2, 4]: 40%
Cc1ccc(C(=O)Nc2ncnn2C)c(Br)c1S(C)(=O)=O | – | 60% | –
CSc1c(C)ccc(C(=O)Nc2nnc(C)o2)c1Br | – | – | Activity against PHBPU [2, 3]: 0%
CSc1c(Cl)ccc(C(=O)Nc2nonc2C)c1C | 0% | – | –
Cc1ccc(C(=O)Nc2ncnn2C)c(C)c1S(C)(=O)=O | – | 90% | –
